Data as given in US20210261857A1, “PARTICLE COMPRISING AT LEAST ONE FERRIMAGNETIC OR FERROMAGNETIC IRON OXIDE NANOPARTICLE ASSOCIATED WITH AT LEAST ONE COMPOUND FOR MEDICAL OR COSMETIC USE” (NANOBACTERIE, priority 2015, published 2021).

Experiments:
Type in all cases: physicochemical
[1] = Luminescence of heated DiI and BNF-DiI suspensions and supernate; details: excited at 530 nm
Description: A suspension of DiI of concentration 5.4 μM and pH 7 is heated at various temperatures lying between 20 and 90° C. for 30 minutes using a dry heating bath. […] When a suspension containing BNF-DiI mixed in water at a concentration of 80 μg/mL in iron oxide is heated at temperatures lying between 20 and 90° C. using a dry heating bath, the behavior is different from that observed with DiI alone.
In order to determine if the luminescence variation of the BNF-DiI is due to the dissociation of DiI from the BNF, the maximum intensity of luminescence of the supernate of BNF-DiI and DiI alone, excited at 530 nm, were measured for suspensions containing BNF-DiI or DiI alone heated at different temperatures between 20 and 90° C. for a period of 0 to 30 minutes.

[2] = Luminescence as a function of pH (pH 2 to 12), suspension, supernate and rhodamine B alone; details: 125 μM, excited at 550 nm
Description: A suspension of MCR400 at 400 μg/mL in iron oxide and a 125 μM solution of rhodamine B were mixed with solutions of hydrochloric acid or with solutions of sodium hydroxide at concentrations ranging from 0.1 to 12 M to adjust the pH to values between 2 and 12. The samples containing the MCR400 suspensions thus treated are then placed against a magnet of 0.6 T for 12 hours at 4° C. and the supernate of the treated MCR400 suspensions is removed. The maximum luminescence intensity of the supernate of the MCR400 suspension, excited at 550 nm, decreases from 140 a.u. at pH 2 down to 20 a.u. at pH 12. On the other hand, the maximum luminescence intensity of rhodamine B alone, excited at 550 nm, increases from 440 a.u. up to 580 a.u. […] In contrast, for 2<pH<4, the emission wavelengths of rhodamine B alone, MCR400 and the supernate of MCR400, are similar, lying between 580 nm and 584 nm. These behaviors could be explained by the association of rhodamine B with magnetosomes for pH>4 and the dissociation of rhodamine B from magnetosomes for pH<4.

[3] = Luminescence of heated rhodamine B solution and MCR400 suspension (temperature probe); details: temperature increased from 20° C. to 80° C., 5 μM, pH 7, heated 30 minutes, excited at 405 nm
Description: A solution of rhodamine B of concentration 5 μM and pH 7 contained in a volume of 800 μL is excited at 405 nm and heated at different temperatures for 30 minutes using a dry heating bath. When the temperature of this solution increases from 20° C. to 80° C., the wavelength corresponding to the maximum luminescence of rhodamine B remains relatively unchanged while the maximum luminescence intensity of rhodamine B decreases strongly by 73% in agreement with previously published results (Journal of Luminescence, Vol. 27, p. 455 (1982)). A suspension of MCR400 at a concentration of 250 μg/mL in iron oxide and pH 7 contained in a volume of 800 μl is excited at 405 nm and heated at different temperatures for 30 minutes using a dry hot-water heating bath. MCR400 excited at 405 nm produce maximum luminescence intensity at 569 nm. The behavior of the MCR400 is different from that of rhodamine B. Indeed, between 20° C. and 80° C., the maximum of the luminescence peak is observed at 569 nm and the luminescence intensity of the MCR400 increases sharply by 66%. The luminescence intensity of rhodamine B would initially be quenched when rhodamine B is associated with magnetosomes and would increase with the dissociation of rhodamine B from magnetosomes under the effect of a temperature increase.

[4] = Luminescence after irradiation with a faxitron irradiator (irradiation probe); details: 0 to 1350 Gy, 125 μM rhodamine B, pH 7, 25° C., excited at 550 nm, measured at 578 nm
Description: Three suspensions are maintained at pH 7 and at a temperature of 25° C., containing either 400 μg/mL in iron oxide of MCR400, 125 μM of rhodamine B, or 400 μg/mL in iron oxide of MC mixed with 125 μM of rhodamine B. These suspensions are irradiated with a faxitron irradiator dosimeter (160 kV, 6.3 mA without filter, 67.5 Gy/min). The irradiation doses are between 0 and 1350 Gy. […] In contrast, when the MCR400 suspension is irradiated, the luminescence of the supernate of this suspension, excited at 550 nm and measured at 576 nm, increases sharply from 250 a.u. in the absence of irradiation to 600-950 a.u. in the presence of an irradiation larger than 250 Gy.

[5] = Fluorescence lifetime by the frequency method; details: excitation 445 nm, MCR400 5 mg/mL in iron oxide, rhodamine B 5 μM
Description: Life time experiments were carried out using the frequency method. The set-up uses a modulated laser diode as excitation source, a confocal fluorescence spectroscope, a control unit for intensifying images and a camera, frequency generators and a spectrograph controller. The modulation frequency has been varied between 30 and 180 MHz. The excitation wavelength is 445 nm. The laser light is modulated by a radio frequency signal. An interference filter suppresses parasitic fluorescence from the laser diode and a high pass filter is placed in the detection path to decrease scattering. A volume of 1 mL of a suspension of MCR400 at 5 mg/mL in iron oxide and rhodamine B at a concentration of 5 μM was placed in a dry heating bath for 5 minutes to heat the suspensions at 25° C. and at 45° C. 10 μl of a suspension of MCR400 at 5 mg/ml in iron oxide and rhodamine B at a concentration of 5 μM were deposited on a slide and then placed in front of an objective ×40 to measure the fluorescence lifetime of each suspension.

Row | maximum luminescence intensity of the solution ([2]; end of the pH increase (pH range 2 to 12)) | maximum luminescence intensity of the solution ([2]; start of the pH increase (pH range 2 to 12)) | decrease of maximum luminescence intensity [3] | luminescence on irradiation (solution, or supernate of the mixture) [4] | fluorescence lifetime ([5]; 25° C.) | fluorescence lifetime ([5]; 45° C.) | Compound | maximum luminescence intensity as a function of heating temperature ([1]; heated 30 minutes, DiI 5.4 μM pH 7, BNF-DiI 80 μg/mL in iron oxide) | luminescence intensity of the substance alone on heating ([1]; heated between 20 and 90° C. for 0 to 30 minutes)
1 |  |  |  |  |  |  | CCCCCCCCCCCCCCCCCCN1C(=CC=CC2=[N+](CCCCCCCCCCCCCCCCCC)c3ccccc3C2(C)C)C(C)(C)c2ccccc21.[O-][Cl+3]([O-])([O-])[O-] [DiI, 1,1′-Dioctadecyl-3,3,3′,3′-tetramethyl-indocarbocyanine perchlorate] | increases between 20 and 60 °C and then decreases between 60 and 100 °C | does not significantly decrease
2 | 580 a.u. | 440 a.u. | 73% | do not vary or decrease | 1.6 ns | 1.3 ns | CCN(CC)c1ccc2c(-c3ccccc3C(=O)O)c3ccc(=[N+](CC)CC)cc-3oc2c1.[Cl-] [rhodamine B] |  | 
